Experimental data as given in US9718808B2, “Inhibitors of the renal outer medullary potassium channel” (Merck Sharp & Dohme Corp., priority 2014, dated 2017).

target: ROMK (Kir1.1) channel (Homo sapiens (Human), UniProt P48048); experiment: Thallium Flux Assay; type: cell-based
Experimental: A Thallium Flux Assay was performed on each of the final product compounds of the Examples. This assay has been described previously; see, e.g., PCT Published Application WO 2013/062900.

Chain of ROMK (Kir1.1) channel (P48048 whole entry): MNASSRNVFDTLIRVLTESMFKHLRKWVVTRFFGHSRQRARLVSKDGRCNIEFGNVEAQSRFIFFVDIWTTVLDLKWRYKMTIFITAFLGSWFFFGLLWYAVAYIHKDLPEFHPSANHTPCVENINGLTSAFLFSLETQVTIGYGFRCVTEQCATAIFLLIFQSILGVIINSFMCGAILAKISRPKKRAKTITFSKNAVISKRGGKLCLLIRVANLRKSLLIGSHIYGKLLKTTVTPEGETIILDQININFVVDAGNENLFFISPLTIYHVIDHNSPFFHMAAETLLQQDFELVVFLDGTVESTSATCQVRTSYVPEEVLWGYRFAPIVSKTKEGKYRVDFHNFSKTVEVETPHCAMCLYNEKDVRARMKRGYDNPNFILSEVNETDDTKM

Structure (SMILES)	IC50
CC1C[C@]2(CC[C@@H](NCc3cnc(-n4cnnn4)cn3)CC2)C(=O)N1C1=CC(=O)OC1 (stereo partly drawn) [Example 49, (5r,8r)-3-methyl-2-(5-oxo-2,5-dihydrofuran-3-yl)-8-({[5-(1H-tetrazol-1-yl)pyrazin-2-yl]methyl}amino)-2-azaspiro[4.5]decan-1-one]	240 nM
CC1C[C@]2(CC[C@@H](NCc3cnc(-n4cnnn4)cn3)CC2)C(=O)N1C1=CC(=O)OC1 (stereo partly drawn) [Example 50, (5r,8r)-3-methyl-2-(5-oxo-2,5-dihydrofuran-3-yl)-8-({[5-(1H-tetrazol-1-yl)pyrazin-2-yl]methyl}amino)-2-azaspiro[4.5]decan-1-one]	39 nM
CC1=C(N2CC[C@]3(CC[C@@H](NCc4ccc5c(c4)CCc4nnnn4-5)CC3)C2=O)COC1=O [Example 51, (5r,8r)-8-(((4,5-dihydrotetrazolo[1,5-a]quinolin-7-yl)methyl)amino)-2-(4-methyl-5-oxo-2,5-dihydrofuran-3-yl)-2-azaspiro[4.5]decan-1-one]	4.3 nM
CC1=C(N2CC[C@]3(CC[C@@H](NCc4cnc5c(c4)Cn4nnnc4-5)CC3)C2=O)COC1=O [Example 52, (5r,8r)-8-(((8H-tetrazolo[1′,5′:1,2]pyrrolo[3,4-b]pyridin-6-yl)methyl)amino)-2-(4-methyl-5-oxo-2,5-dihydrofuran-3-yl)-2-azaspiro[4.5]decan-1-one]	160 nM
CC1=C(N2CC[C@]3(CC[C@@H](NCc4ccc5c(c4)C(C)n4nnnc4-5)CC3)C2=O)COC1=O (stereo partly drawn) [Example 53, (5r,8r)-2-(4-methyl-5-oxo-2,5-dihydrofuran-3-yl)-8-(((5-methyl-5H-tetrazolo[5,1-a]isoindol-7-yl)methyl)amino)-2-azaspiro[4.5]decan-1-one]	19 nM
CC1=C(N2CC[C@]3(CC[C@@H](NCc4ccc5c(c4C)Cn4nnnc4-5)CC3)C2=O)COC1=O [Example 54, (5r,8r)-2-(4-methyl-5-oxo-2,5-dihydrofuran-3-yl)-8-(((6-methyl-5H-tetrazolo[5,1-a]isoindol-7-yl)methyl)amino)-2-azaspiro[4.5]decan-1-one]	32 nM
CC1=C(N2C(=O)[C@]3(CC[C@@H](NCc4ccc5c(c4)Cn4nnnc4-5)CC3)C[C@H]2C)COC1=O [Example 55, (3R,5s,8S)-8-(((5H-tetrazolo[5,1-a]isoindol-7-yl)methyl)amino)-3-methyl-2-(4-methyl-5-oxo-2,5-dihydrofuran-3-yl)-2-azaspiro[4.5]decan-1-one]	15 nM
CC1=C(N2C(=O)[C@]3(CC[C@H](NCc4ccc5c(c4)Cn4nnnc4-5)CC3)C[C@@H]2C)COC1=O [Example 56, (3S,5r,8S)-8-(((5H-tetrazolo[5,1-a]isoindol-7-yl)methyl)amino)-3-methyl-2-(4-methyl-5-oxo-2,5-dihydrofuran-3-yl)-2-azaspiro[4.5]decan-1-one]	520 nM
CC1=C(N2CC[C@]3(CC[C@@H](NCc4ccc5c(c4F)Cn4nnnc4-5)CC3)C2=O)COC1=O [Example 59, (5r,8r)-8-(((6-fluoro-5H-tetrazolo[5,1-a]isoindol-7-yl)methyl)amino)-2-(4-methyl-5-oxo-2,5-dihydrofuran-3-yl)-2-azaspiro[4.5]decan-1-one]	6 nM
CC1=C(N2C(=O)[C@]3(CC[C@H](NCc4ccc5c(c4)Cn4nnnc4-5)CC3)C[C@H]2C)COC1=O [Example 60, (3R,5r,8R)-8-(((5H-tetrazolo[5,1-a]isoindol-7-yl)methyl)amino)-3-methyl-2-(4-methyl-5-oxo-2,5-dihydrofuran-3-yl)-2-azaspiro[4.5]decan-1-one]	650 nM
CC1=C(N2CC[C@]3(CC[C@@H](NCc4cc5c(cc4C)-c4nnnn4C5)CC3)C2=O)COC1=O [Example 61, (5r,8r)-2-(4-methyl-5-oxo-2,5-dihydrofuran-3-yl)-8-(((8-methyl-5H-tetrazolo[5,1-a]isoindol-7-yl)methyl)amino)-2-azaspiro[4.5]decan-1-one]	23 nM
C[C@H]1C[C@]2(CC[C@H](NCc3ccc4c(c3)Cn3nnnc3-4)CC2)C(=O)N1C1=CC(=O)OC1 [Example 62, (3S,5s,8R)-8-(((5H-tetrazolo[5,1-a]isoindol-7-yl)methyl)amino)-3-methyl-2-(5-oxo-2,5-dihydrofuran-3-yl)-2-azaspiro[4.5]decan-1-one]	20 nM
C[C@H]1C[C@]2(CC[C@@H](NCc3ccc4c(c3)Cn3nnnc3-4)CC2)C(=O)N1C1=CC(=O)OC1 [Example 63, (3S,5r,8S)-8-(((5H-tetrazolo[5,1-a]isoindol-7-yl)methyl)amino)-3-methyl-2-(5-oxo-2,5-dihydrofuran-3-yl)-2-azaspiro[4.5]decan-1-one]	23 nM
C[C@@H]1C[C@]2(CC[C@H](NCc3ccc4c(c3)Cn3nnnc3-4)CC2)C(=O)N1C1=CC(=O)OC1 [Example 65, (3R,5s,8S)-8-(((5H-tetrazolo[5,1-a]isoindol-7-yl)methyl)amino)-3-methyl-2-(5-oxo-2,5-dihydrofuran-3-yl)-2-azaspiro[4.5]decan-1-one]	19 nM
C[C@H]1C[C@]2(CC[C@@H](NCc3cnc(-n4cnnn4)cn3)CC2)C(=O)N1C1=CC(=O)OC1 [Example 66, (3S,5r,8S)-8-(((5-(1H-tetrazol-1-yl)pyrazin-2-yl)methyl)amino)-3-methyl-2-(5-oxo-2,5-dihydrofuran-3-yl)-2-azaspiro[4.5]decan-1-one]	7 nM
CC1=C(N2CC[C@]3(CC[C@](C)(NCc4cnc(-n5cnnn5)cn4)CC3)C2=O)COC1=O [Example 68, (5s,8s)-8-(((5-(1H-tetrazol-1-yl)pyrazin-2-yl)methyl)amino)-8-methyl-2-(4-methyl-5-oxo-2,5-dihydrofuran-3-yl)-2-azaspiro[4.5]decan-1-one]	140 nM
CC1=C(N2CC[C@]3(CC[C@@](C)(NCc4cnc(-n5cnnn5)cn4)CC3)C2=O)COC1=O [Example 69, (5r,8r)-8-(((5-(1H-tetrazol-1-yl)pyrazin-2-yl)methyl)amino)-8-methyl-2-(4-methyl-5-oxo-2,5-dihydrofuran-3-yl)-2-azaspiro[4.5]decan-1-one]	15 nM
O=C1C=C(N2CC[C@]3(CC[C@@H](NCc4cnc(-n5cnnn5)cn4)CC3)C2=O)CO1 [Example 72, (5r,8r)-8-(((5-(1H-tetrazol-1-yl)pyrazin-2-yl)methyl)amino)-2-(5-oxo-2,5-dihydrofuran-3-yl)-2-azaspiro[4.5]decan-1-one]	340 nM
O=C1C=C(N2CC[C@]3(CC[C@H](NCc4cnc(-n5cnnn5)cn4)CC3)C2=O)CO1 [Example 73, (5s,8s)-8-(((5-(1H-tetrazol-1-yl)pyrazin-2-yl)methyl)amino)-2-(5-oxo-2,5-dihydrofuran-3-yl)-2-azaspiro[4.5]decan-1-one]	2000 nM
CC1=C(N2CC[C@]3(CC[C@H](NCc4ccc(-n5ncnn5)nn4)CC3)C2=O)COC1=O [Example 74, (5s,8s)-8-(((6-(2H-tetrazol-2-yl)pyridazin-3-yl)methyl)amino)-2-(4-methyl-5-oxo-2,5-dihydrofuran-3-yl)-2-azaspiro[4.5]decan-1-one]	210 nM
CC1=C(N2CC[C@]3(CC[C@@H](NCc4ccc(-n5ncnn5)nn4)CC3)C2=O)COC1=O [Example 75, (5r,8r)-8-(((6-(2H-tetrazol-2-yl)pyridazin-3-yl)methyl)amino)-2-(4-methyl-5-oxo-2,5-dihydrofuran-3-yl)-2-azaspiro[4.5]decan-1-one]	9.3 nM
CC1=C(N2CC[C@]3(CC[C@H](N[C@H](CO)c4ccc(-n5cnnn5)nc4)CC3)C2=O)COC1=O [Example 77]	360 nM

The remaining lines, values ahead:

IC50	Structure (SMILES)
210 nM	CC1=C(N2CC[C@]3(CC[C@@H](NC[C@H](O)c4ccc5c(c4C)COC5=O)CC3)C2=O)COC1=O [Example 78, (5r,8r)-8-(((R)-2-hydroxy-2-(4-methyl-1-oxo-1,3-dihydroisobenzofuran-5-yl)ethyl)amino)-2-(4-methyl-5-oxo-2,5-dihydrofuran-3-yl)-2-azaspiro[4.5]decan-1-one]
280 nM	CC1=C(N2CC[C@]3(CC[C@H](NC[C@H](O)c4ccc5c(c4C)COC5=O)CC3)C2=O)COC1=O [Example 79, (5S,8s)-8-{[(2R)-2-hydroxy-2-(4-methyl-1-oxo-1,3-dihydro-2-benzofuran-5-yl)ethyl]amino}-2-(4-methyl-5-oxo-2,5-dihydrofuran-3-yl)-2-azaspiro[4.5]decan-1-one]
19 nM	CC1=C(N2CC[C@]3(CC[C@@H](N(C)Cc4ccc(-n5cnnn5)nn4)CC3)C2=O)COC1=O [Example 80, (5r,8r)-2-(4-methyl-5-oxo-2,5-dihydrofuran-3-yl)-8-(methyl{[6-(1H-tetrazol-1-yl)pyridazin-3-yl]methyl}amino)-2-azaspiro[4.5]decan-1-one]
28 nM	CC1=C(N2CC[C@]3(CC[C@H](N(C)Cc4ccc(-n5cnnn5)nc4)CC3)C2=O)COC1=O [Example 83]
740 nM	CC1=C(N2CC[C@]3(CC[C@@H](N(C)Cc4ccc(-n5cnnn5)nc4)CC3)C2=O)COC1=O [Example 84]
190 nM	CC1=C(N2CC[C@]3(CC[C@H](N(C)[C@H](CO)c4ccc(-n5cnnn5)nc4)CC3)C2=O)COC1=O [Example 85]
480 nM	CC1=C(N2CC[C@]3(CC[C@@H](N(C)[C@H](CO)c4ccc(-n5cnnn5)nc4)CC3)C2=O)COC1=O [Example 86]
550 nM	CC1=C(N2CC[C@]3(CC[C@H](N(C)Cc4ccc(-n5cnnn5)cn4)CC3)C2=O)COC1=O [Example 87]
7 nM	CC1=C(N2CC[C@]3(CC[C@@H](N(C)Cc4ccc(-n5cnnn5)cn4)CC3)C2=O)COC1=O [Example 88]
950 nM	CC1=C(N2CC[C@]3(CC[C@H](N(C)Cc4ccc5c(c4)Cn4nnnc4-5)CC3)C2=O)COC1=O [Example 89]
22 nM	CC1=C(N2CC[C@]3(CC[C@@H](N(C)Cc4ccc5c(c4)Cn4nnnc4-5)CC3)C2=O)COC1=O [Example 90]
690 nM	CC1=C(N2CC[C@]3(CC[C@H](N(C)Cc4cnc(-n5cnnn5)cn4)CC3)C2=O)COC1=O [Example 91]
29 nM	CC1=C(N2CC[C@]3(CC[C@@H](N(C)Cc4cnc(-n5cnnn5)cn4)CC3)C2=O)COC1=O [Example 92]
510 nM	CC1=C(N2CC[C@]3(CC[C@H](N(C)[C@H](C)c4ccc(-n5cnnn5)nc4)CC3)C2=O)COC1=O [Example 93]
